Numbers after ± are expanded uncertainties.
Assay: xn = mol fraction of the nth substance listed
Conditions: 101 kPa, Liquid

`CCCC[n+]1ccn(C)c1.O=S(=O)([N-]S(=O)(=O)C(F)(F)F)C(F)(F)F` + CC#N showed a mass density (293.15 K, x1 = 0.0971) of 1034.65 ± 0.52 kg/m3, a mass density (293.15 K, x1 = 0.2033) of 1175.45 ± 0.63 kg/m3 and a mass density (293.15 K, x1 = 0.2989) of 1252.06 ± 0.71 kg/m3. It also gave a mass density (293.15 K, x1 = 0.471) of 1335.15 ± 0.79 kg/m3, a mass density (293.15 K, x1 = 0.6261) of 1380.43 ± 0.8 kg/m3 and a mass density (293.15 K, x1 = 0.7423) of 1404.79 ± 0.8 kg/m3. For the same compound, the mass density (293.15 K, x1 = 0.8983) was 1429.03 ± 0.81 kg/m3, the mass density (293.15 K, x1 = 1) was 1441.63 ± 0.82 kg/m3 and the mass density (298.15 K, x1 = 0.0971) was 1029.33 ± 0.39 kg/m3. For the same compound, the mass density (298.15 K, x1 = 0.2033) was 1170.35 ± 0.61 kg/m3, the mass density (298.15 K, x1 = 0.2989) was 1247.09 ± 0.7 kg/m3 and the mass density (298.15 K, x1 = 0.471) was 1330.18 ± 0.78 kg/m3. It also gave a mass density (298.15 K, x1 = 0.6261) of 1375.57 ± 0.79 kg/m3, a mass density (298.15 K, x1 = 0.7423) of 1400.01 ± 0.79 kg/m3 and a mass density (298.15 K, x1 = 0.8983) of 1424.12 ± 0.8 kg/m3. It also gave a mass density (298.15 K, x1 = 1) of 1436.83 ± 0.81 kg/m3, a mass density (303.13 K, x1 = 0.0971) of 1024.05 ± 0.38 kg/m3 and a mass density (303.13 K, x1 = 0.2033) of 1165.12 ± 0.6 kg/m3. The mass density (303.13 K, x1 = 0.2989) was 1242.32 ± 0.69 kg/m3, the mass density (303.13 K, x1 = 0.471) was 1325.41 ± 0.77 kg/m3 and the mass density (303.13 K, x1 = 0.6261) was 1370.72 ± 0.78 kg/m3. For the same compound, the mass density (303.13 K, x1 = 0.7423) was 1395.36 ± 0.79 kg/m3, the mass density (303.13 K, x1 = 0.8983) was 1419.28 ± 0.8 kg/m3 and the mass density (303.13 K, x1 = 1) was 1431.98 ± 0.81 kg/m3. It also gave a mass density (308.15 K, x1 = 0.0971) of 1019.47 ± 0.38 kg/m3, a mass density (308.15 K, x1 = 0.2033) of 1160.25 ± 0.6 kg/m3 and a mass density (308.15 K, x1 = 0.2989) of 1237.21 ± 0.68 kg/m3. It also gave a mass density (308.15 K, x1 = 0.471) of 1320.49 ± 0.76 kg/m3, a mass density (308.15 K, x1 = 0.6261) of 1365.88 ± 0.77 kg/m3 and a mass density (308.15 K, x1 = 0.7423) of 1390.45 ± 0.78 kg/m3. It also gave a mass density (308.15 K, x1 = 0.8983) of 1414.54 ± 0.79 kg/m3, a mass density (308.15 K, x1 = 1) of 1427.16 ± 0.8 kg/m3 and a mass density (313.15 K, x1 = 0.0971) of 1014.26 ± 0.58 kg/m3. The mass density (313.15 K, x1 = 0.2033) was 1155.05 ± 0.62 kg/m3, the mass density (313.15 K, x1 = 0.2989) was 1232.4 ± 0.69 kg/m3 and the mass density (313.15 K, x1 = 0.471) was 1315.67 ± 0.77 kg/m3. For the same compound, the mass density (313.15 K, x1 = 0.6261) was 1361.14 ± 0.77 kg/m3, the mass density (313.15 K, x1 = 0.7423) was 1385.64 ± 0.77 kg/m3 and the mass density (313.15 K, x1 = 0.8983) was 1409.73 ± 0.78 kg/m3. It also gave a mass density (313.15 K, x1 = 1) of 1422.36 ± 0.79 kg/m3.
With `CCn1cc[n+](C)c1.O=S(=O)([N-]S(=O)(=O)C(F)(F)F)C(F)(F)F` + CC#N the mass density (293.15 K, x1 = 0.0533) was 946.96 ± 0.45 kg/m3, the mass density (293.15 K, x1 = 0.1886) was 1183.76 ± 0.72 kg/m3 and the mass density (293.15 K, x1 = 0.337) was 1316.94 ± 0.83 kg/m3. For the same compound, the mass density (293.15 K, x1 = 0.4724) was 1390.06 ± 0.88 kg/m3, the mass density (293.15 K, x1 = 0.652) was 1452.53 ± 0.91 kg/m3 and the mass density (293.15 K, x1 = 0.8245) was 1492.64 ± 0.92 kg/m3. The mass density (293.15 K, x1 = 0.924) was 1510.36 ± 0.94 kg/m3, the mass density (293.15 K, x1 = 1) was 1522.08 ± 0.95 kg/m3 and the mass density (298.15 K, x1 = 0.0533) was 941.54 ± 0.39 kg/m3. For the same compound, the mass density (298.15 K, x1 = 0.1886) was 1178.5 ± 0.64 kg/m3, the mass density (298.15 K, x1 = 0.337) was 1311.68 ± 0.82 kg/m3 and the mass density (298.15 K, x1 = 0.4724) was 1384.82 ± 0.87 kg/m3. It also gave a mass density (298.15 K, x1 = 0.652) of 1447.4 ± 0.9 kg/m3, a mass density (298.15 K, x1 = 0.8245) of 1487.58 ± 0.92 kg/m3 and a mass density (298.15 K, x1 = 0.924) of 1505.26 ± 0.93 kg/m3. It also gave a mass density (298.15 K, x1 = 1) of 1516.96 ± 0.94 kg/m3, a mass density (303.13 K, x1 = 0.0533) of 936.1 ± 0.4 kg/m3 and a mass density (303.13 K, x1 = 0.1886) of 1173.4 ± 0.63 kg/m3. For the same compound, the mass density (303.13 K, x1 = 0.337) was 1306.48 ± 0.81 kg/m3, the mass density (303.13 K, x1 = 0.4724) was 1379.62 ± 0.87 kg/m3 and the mass density (303.13 K, x1 = 0.652) was 1442.24 ± 0.89 kg/m3. It also gave a mass density (303.13 K, x1 = 0.8245) of 1482.39 ± 0.91 kg/m3, a mass density (303.13 K, x1 = 0.924) of 1500.2 ± 0.92 kg/m3 and a mass density (303.13 K, x1 = 1) of 1511.85 ± 0.93 kg/m3. The mass density (308.15 K, x1 = 0.0533) was 930.61 ± 0.41 kg/m3, the mass density (308.15 K, x1 = 0.1886) was 1168.18 ± 0.62 kg/m3 and the mass density (308.15 K, x1 = 0.337) was 1301.14 ± 0.8 kg/m3. It also gave a mass density (308.15 K, x1 = 0.4724) of 1374.57 ± 0.86 kg/m3, a mass density (308.15 K, x1 = 0.652) of 1437.1 ± 0.88 kg/m3 and a mass density (308.15 K, x1 = 0.8245) of 1477.35 ± 0.9 kg/m3. The mass density (308.15 K, x1 = 0.924) was 1495.13 ± 0.91 kg/m3, the mass density (308.15 K, x1 = 1) was 1506.8 ± 0.92 kg/m3 and the mass density (313.15 K, x1 = 0.0533) was 925.26 ± 0.54 kg/m3. It also gave a mass density (313.15 K, x1 = 0.1886) of 1162.68 ± 0.74 kg/m3, a mass density (313.15 K, x1 = 0.337) of 1296.39 ± 0.81 kg/m3 and a mass density (313.15 K, x1 = 0.4724) of 1369.51 ± 0.86 kg/m3. It also gave a mass density (313.15 K, x1 = 0.652) of 1432.02 ± 0.88 kg/m3, a mass density (313.15 K, x1 = 0.8245) of 1472.28 ± 0.89 kg/m3 and a mass density (313.15 K, x1 = 0.924) of 1490.11 ± 0.9 kg/m3. The mass density (313.15 K, x1 = 1) was 1501.74 ± 0.91 kg/m3.
`CCn1cc[n+](C)c1.O=S(=O)([N-]S(=O)(=O)C(F)(F)F)C(F)(F)F` + C[S+](C)[O-] gave a mass density (293.15 K, x1 = 0.0593) of 1173.7 ± 0.4 kg/m3, a mass density (293.15 K, x1 = 0.1959) of 1289.73 ± 0.6 kg/m3 and a mass density (293.15 K, x1 = 0.3595) of 1375.56 ± 0.73 kg/m3. It also gave a mass density (293.15 K, x1 = 0.5086) of 1427.76 ± 0.81 kg/m3, a mass density (293.15 K, x1 = 0.6325) of 1459.88 ± 0.85 kg/m3 and a mass density (293.15 K, x1 = 0.7778) of 1489.12 ± 0.89 kg/m3. For the same compound, the mass density (293.15 K, x1 = 0.9378) was 1513.61 ± 0.93 kg/m3, the mass density (293.15 K, x1 = 1) was 1522.08 ± 0.95 kg/m3 and the mass density (298.15 K, x1 = 0.0593) was 1168.67 ± 0.4 kg/m3. The mass density (298.15 K, x1 = 0.1959) was 1284.68 ± 0.59 kg/m3, the mass density (298.15 K, x1 = 0.3595) was 1370.44 ± 0.73 kg/m3 and the mass density (298.15 K, x1 = 0.5086) was 1422.61 ± 0.81 kg/m3. The mass density (298.15 K, x1 = 0.6325) was 1454.75 ± 0.85 kg/m3, the mass density (298.15 K, x1 = 0.7778) was 1484.04 ± 0.89 kg/m3 and the mass density (298.15 K, x1 = 0.9378) was 1508.51 ± 0.93 kg/m3. For the same compound, the mass density (298.15 K, x1 = 1) was 1516.96 ± 0.94 kg/m3, the mass density (303.13 K, x1 = 0.0593) was 1163.66 ± 0.39 kg/m3 and the mass density (303.13 K, x1 = 0.1959) was 1279.59 ± 0.58 kg/m3. For the same compound, the mass density (303.13 K, x1 = 0.3595) was 1365.31 ± 0.72 kg/m3, the mass density (303.13 K, x1 = 0.5086) was 1417.47 ± 0.8 kg/m3 and the mass density (303.13 K, x1 = 0.6325) was 1449.64 ± 0.84 kg/m3. The mass density (303.13 K, x1 = 0.7778) was 1478.96 ± 0.88 kg/m3, the mass density (303.13 K, x1 = 0.9378) was 1503.42 ± 0.92 kg/m3 and the mass density (303.13 K, x1 = 1) was 1511.85 ± 0.93 kg/m3. For the same compound, the mass density (308.15 K, x1 = 0.0593) was 1158.66 ± 0.38 kg/m3, the mass density (308.15 K, x1 = 0.1959) was 1274.53 ± 0.57 kg/m3 and the mass density (308.15 K, x1 = 0.3595) was 1360.26 ± 0.71 kg/m3. The mass density (308.15 K, x1 = 0.5086) was 1412.42 ± 0.79 kg/m3, the mass density (308.15 K, x1 = 0.6325) was 1444.59 ± 0.83 kg/m3 and the mass density (308.15 K, x1 = 0.7778) was 1473.89 ± 0.87 kg/m3. The mass density (308.15 K, x1 = 0.9378) was 1498.38 ± 0.91 kg/m3, the mass density (308.15 K, x1 = 1) was 1506.8 ± 0.92 kg/m3 and the mass density (313.15 K, x1 = 0.0593) was 1153.63 ± 0.4 kg/m3. The mass density (313.15 K, x1 = 0.1959) was 1269.48 ± 0.6 kg/m3, the mass density (313.15 K, x1 = 0.3595) was 1355.2 ± 0.71 kg/m3 and the mass density (313.15 K, x1 = 0.5086) was 1407.36 ± 0.78 kg/m3. The mass density (313.15 K, x1 = 0.6325) was 1439.52 ± 0.82 kg/m3, the mass density (313.15 K, x1 = 0.7778) was 1468.84 ± 0.87 kg/m3 and the mass density (313.15 K, x1 = 0.9378) was 1493.29 ± 0.9 kg/m3. The mass density (313.15 K, x1 = 1) was 1501.74 ± 0.91 kg/m3.
